Test results reported in the NIST ThermoML archive (doi:10.1021/acs.jced.6b00455).

Assay: mn = molality of the nth substance listed, in mol/kg
Details: 101 kPa, Liquid, Alternating current cell with electrodes

C[N+](C)(C)CCO.O=C([O-])C(F)(F)C(F)(F)C(F)(F)C(F)(F)C(F)(F)C(F)(F)C(F)(F)F [(2-hydroxyethyl)trimethylammonium perfluorooctanoate] + O
Details | electrical conductivity [S/m]
293.15 K, m1 = 7.6e-05 | 0.0005
293.15 K, m1 = 0.000243 | 0.0015
293.15 K, m1 = 0.000338 | 0.0021
293.15 K, m1 = 0.000489 | 0.0031
293.15 K, m1 = 0.000626 | 0.0039
293.15 K, m1 = 0.000747 | 0.0046
293.15 K, m1 = 0.000847 | 0.0053
293.15 K, m1 = 0.000968 | 0.0061
293.15 K, m1 = 0.001108 | 0.007
293.15 K, m1 = 0.001301 | 0.008
293.15 K, m1 = 0.001463 | 0.0091
293.15 K, m1 = 0.001591 | 0.0098
293.15 K, m1 = 0.001689 | 0.0106
293.15 K, m1 = 0.00186 | 0.0114
293.15 K, m1 = 0.001996 | 0.0123
293.15 K, m1 = 0.002117 | 0.0129
293.15 K, m1 = 0.00224 | 0.0138
293.15 K, m1 = 0.002376 | 0.0145
293.15 K, m1 = 0.002497 | 0.0153
293.15 K, m1 = 0.00262 | 0.016
293.15 K, m1 = 0.002737 | 0.0167
293.15 K, m1 = 0.002945 | 0.018
293.15 K, m1 = 0.00309 | 0.0188
293.15 K, m1 = 0.003212 | 0.0196
293.15 K, m1 = 0.003363 | 0.0202
293.15 K, m1 = 0.003476 | 0.0208
293.15 K, m1 = 0.003596 | 0.0216
293.15 K, m1 = 0.003714 | 0.0222
298.15 K, m1 = 6.2e-05 | 0.0004
298.15 K, m1 = 0.000138 | 0.0009
298.15 K, m1 = 0.00019 | 0.0013
298.15 K, m1 = 0.000258 | 0.0018
298.15 K, m1 = 0.000317 | 0.0022
298.15 K, m1 = 0.000375 | 0.0026
298.15 K, m1 = 0.000432 | 0.003
298.15 K, m1 = 0.000488 | 0.0034
298.15 K, m1 = 0.000547 | 0.0038
298.15 K, m1 = 0.000619 | 0.0044
298.15 K, m1 = 0.000704 | 0.0049
298.15 K, m1 = 0.00077 | 0.0054
298.15 K, m1 = 0.000828 | 0.006
298.15 K, m1 = 0.00091 | 0.0066
298.15 K, m1 = 0.000999 | 0.0072
298.15 K, m1 = 0.001085 | 0.0078
298.15 K, m1 = 0.001174 | 0.0084
298.15 K, m1 = 0.001268 | 0.009
298.15 K, m1 = 0.001353 | 0.0096
298.15 K, m1 = 0.001452 | 0.0102
298.15 K, m1 = 0.001544 | 0.0109
298.15 K, m1 = 0.001654 | 0.0115
298.15 K, m1 = 0.001755 | 0.0119
298.15 K, m1 = 0.00185 | 0.0125
298.15 K, m1 = 0.001933 | 0.013
298.15 K, m1 = 0.002054 | 0.0138
298.15 K, m1 = 0.002177 | 0.0146
298.15 K, m1 = 0.002284 | 0.0152
298.15 K, m1 = 0.00241 | 0.016
298.15 K, m1 = 0.002525 | 0.0167
298.15 K, m1 = 0.002643 | 0.0174
298.15 K, m1 = 0.002738 | 0.018
298.15 K, m1 = 0.002963 | 0.0194
298.15 K, m1 = 0.003158 | 0.0205
298.15 K, m1 = 0.003285 | 0.0213
298.15 K, m1 = 0.003418 | 0.0221
298.15 K, m1 = 0.003542 | 0.0228
298.15 K, m1 = 0.00364 | 0.0234
298.15 K, m1 = 0.003768 | 0.0242
298.15 K, m1 = 0.003952 | 0.0253
298.15 K, m1 = 0.004493 | 0.0287
298.15 K, m1 = 0.005611 | 0.0355
298.15 K, m1 = 0.006271 | 0.0391
298.15 K, m1 = 0.006873 | 0.0424
298.15 K, m1 = 0.007507 | 0.0463
303.15 K, m1 = 6.9e-05 | 0.0006
303.15 K, m1 = 0.000173 | 0.0013
303.15 K, m1 = 0.000265 | 0.002
303.15 K, m1 = 0.000396 | 0.0031
303.15 K, m1 = 0.000504 | 0.0039
303.15 K, m1 = 0.000614 | 0.0048
303.15 K, m1 = 0.000711 | 0.0055
303.15 K, m1 = 0.000794 | 0.0061
303.15 K, m1 = 0.000992 | 0.0077
303.15 K, m1 = 0.001091 | 0.0084
303.15 K, m1 = 0.001177 | 0.0091
303.15 K, m1 = 0.00129 | 0.0099
303.15 K, m1 = 0.001381 | 0.0105
303.15 K, m1 = 0.001497 | 0.0113
303.15 K, m1 = 0.001589 | 0.012
303.15 K, m1 = 0.001698 | 0.0128
303.15 K, m1 = 0.002339 | 0.0176
303.15 K, m1 = 0.002615 | 0.0196
303.15 K, m1 = 0.002737 | 0.0204
303.15 K, m1 = 0.002834 | 0.021
303.15 K, m1 = 0.002921 | 0.0216
303.15 K, m1 = 0.003011 | 0.0222
303.15 K, m1 = 0.003103 | 0.0229
303.15 K, m1 = 0.003204 | 0.0237
303.15 K, m1 = 0.003323 | 0.0244
303.15 K, m1 = 0.003408 | 0.025
303.15 K, m1 = 0.003487 | 0.0256
303.15 K, m1 = 0.003599 | 0.0264
303.15 K, m1 = 0.003701 | 0.0271
303.15 K, m1 = 0.003815 | 0.0279
303.15 K, m1 = 0.003911 | 0.0285
303.15 K, m1 = 0.004027 | 0.0293
303.15 K, m1 = 0.004122 | 0.03
303.15 K, m1 = 0.004288 | 0.0311
303.15 K, m1 = 0.004393 | 0.0318
303.15 K, m1 = 0.004492 | 0.0325
303.15 K, m1 = 0.004585 | 0.0331
303.15 K, m1 = 0.004679 | 0.0337
303.15 K, m1 = 0.004785 | 0.0345
308.15 K, m1 = 6.9e-05 | 0.0006
308.15 K, m1 = 0.000131 | 0.0012
308.15 K, m1 = 0.000188 | 0.0016
308.15 K, m1 = 0.000233 | 0.002
308.15 K, m1 = 0.000278 | 0.0024
308.15 K, m1 = 0.000329 | 0.0029
308.15 K, m1 = 0.000372 | 0.0032
308.15 K, m1 = 0.000407 | 0.0035
308.15 K, m1 = 0.000451 | 0.0039
308.15 K, m1 = 0.000486 | 0.0043
308.15 K, m1 = 0.000545 | 0.0048
308.15 K, m1 = 0.000576 | 0.0051
308.15 K, m1 = 0.000628 | 0.0055
308.15 K, m1 = 0.000669 | 0.0059
308.15 K, m1 = 0.000706 | 0.0062
308.15 K, m1 = 0.000758 | 0.0067
308.15 K, m1 = 0.000796 | 0.007
308.15 K, m1 = 0.000831 | 0.0073
308.15 K, m1 = 0.000864 | 0.0076
308.15 K, m1 = 0.0009 | 0.0079
308.15 K, m1 = 0.000934 | 0.0082
308.15 K, m1 = 0.000981 | 0.0087
308.15 K, m1 = 0.001026 | 0.0091
308.15 K, m1 = 0.00106 | 0.0094
308.15 K, m1 = 0.001098 | 0.0097
308.15 K, m1 = 0.001138 | 0.0101
308.15 K, m1 = 0.001211 | 0.0107
308.15 K, m1 = 0.001265 | 0.0112
308.15 K, m1 = 0.001299 | 0.0114
308.15 K, m1 = 0.001362 | 0.012
308.15 K, m1 = 0.001397 | 0.0123
308.15 K, m1 = 0.001445 | 0.0127
308.15 K, m1 = 0.0015 | 0.0132
308.15 K, m1 = 0.001539 | 0.0136
308.15 K, m1 = 0.001701 | 0.015
308.15 K, m1 = 0.001808 | 0.0159
308.15 K, m1 = 0.001958 | 0.0173
308.15 K, m1 = 0.002148 | 0.0189
308.15 K, m1 = 0.002371 | 0.0209
308.15 K, m1 = 0.0025 | 0.022
308.15 K, m1 = 0.002602 | 0.0229
308.15 K, m1 = 0.002723 | 0.0239
308.15 K, m1 = 0.00288 | 0.0253
308.15 K, m1 = 0.003015 | 0.0265
308.15 K, m1 = 0.003126 | 0.0274
308.15 K, m1 = 0.00328 | 0.0287
308.15 K, m1 = 0.003401 | 0.0297
308.15 K, m1 = 0.003526 | 0.0308
308.15 K, m1 = 0.003657 | 0.0319
308.15 K, m1 = 0.003764 | 0.0328
308.15 K, m1 = 0.003883 | 0.0337
308.15 K, m1 = 0.003991 | 0.0346
308.15 K, m1 = 0.004106 | 0.0356
308.15 K, m1 = 0.00422 | 0.0365
308.15 K, m1 = 0.004341 | 0.0375
308.15 K, m1 = 0.004478 | 0.0386
308.15 K, m1 = 0.004597 | 0.0396
308.15 K, m1 = 0.004723 | 0.0405
313.15 K, m1 = 0.000143 | 0.0013
313.15 K, m1 = 0.000274 | 0.0026
313.15 K, m1 = 0.000394 | 0.0038
313.15 K, m1 = 0.000543 | 0.005
313.15 K, m1 = 0.00064 | 0.006
313.15 K, m1 = 0.000773 | 0.0073
313.15 K, m1 = 0.000904 | 0.0087
313.15 K, m1 = 0.001044 | 0.0101
313.15 K, m1 = 0.001221 | 0.012
313.15 K, m1 = 0.001372 | 0.0134
313.15 K, m1 = 0.001554 | 0.0149
313.15 K, m1 = 0.001697 | 0.0164
313.15 K, m1 = 0.001835 | 0.0178
313.15 K, m1 = 0.002088 | 0.02
313.15 K, m1 = 0.002327 | 0.0222
313.15 K, m1 = 0.002528 | 0.0242
313.15 K, m1 = 0.002879 | 0.0274
313.15 K, m1 = 0.003226 | 0.0306
313.15 K, m1 = 0.003438 | 0.0318
313.15 K, m1 = 0.003602 | 0.0333
313.15 K, m1 = 0.003774 | 0.035
313.15 K, m1 = 0.004014 | 0.037
313.15 K, m1 = 0.00417 | 0.0382
313.15 K, m1 = 0.004352 | 0.0397
313.15 K, m1 = 0.004528 | 0.0415
313.15 K, m1 = 0.004708 | 0.043
313.15 K, m1 = 0.004876 | 0.0446
313.15 K, m1 = 0.005072 | 0.0463
313.15 K, m1 = 0.005237 | 0.0477
